These results are taken from patent publication US11993599B2, “Therapeutic compounds” (Genentech, Inc., priority 2021, dated 2024).

In one assay the target is BRM (Homo sapiens, UniProt P51531). Nature of the assay: Immunofluorescence assay for BRM degradation in SW1573 cells. Format: cell-based. On the set-up: treated overnight at 4° C. with either BRM primary antibody (Cell signaling Cat #11966) or BRG primary antibody; endogenous in cells; host or cells: SW1573. The following applies: 20 hours incubation; for DC50: immunofluorescence mean nuclear signal, read-out: BRM IF Degradation IC50; for BRM IF Degradation Sinf (%): normalized to a known degrader control. The procedure, abridged: (§1)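 Imaging-based readout in SW1573: 20 h dosing, formaldehyde fixation, antibody staining for either remodeler, nuclear intensity per cell quantified. Values normalized to control degrader; floating-maximum fit.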

The target in another assay is T1, BRG1 (Homo sapiens, UniProt P51532).
T1 construct: either BRM primary antibody (Cell signaling Cat #11966) or BRG primary antibody (Abcam, ab 110641); endogenous in cells; host or cells: SW1573
In words: Immunofluorescence assay for BRG1 degradation in SW1573 cells. Format: cell-based. The following applies: 20 hours incubation; for DC50: immunofluorescence mean nuclear signal, read-out: BRG1 IF Degradation IC50; for Dmax: SW1573, 20 h, normalized to a known degrader control, read-out: BRG1 IF Degradation Sinf (%). A digest of the protocol:
as §1

T1 sequence (P51532 whole entry): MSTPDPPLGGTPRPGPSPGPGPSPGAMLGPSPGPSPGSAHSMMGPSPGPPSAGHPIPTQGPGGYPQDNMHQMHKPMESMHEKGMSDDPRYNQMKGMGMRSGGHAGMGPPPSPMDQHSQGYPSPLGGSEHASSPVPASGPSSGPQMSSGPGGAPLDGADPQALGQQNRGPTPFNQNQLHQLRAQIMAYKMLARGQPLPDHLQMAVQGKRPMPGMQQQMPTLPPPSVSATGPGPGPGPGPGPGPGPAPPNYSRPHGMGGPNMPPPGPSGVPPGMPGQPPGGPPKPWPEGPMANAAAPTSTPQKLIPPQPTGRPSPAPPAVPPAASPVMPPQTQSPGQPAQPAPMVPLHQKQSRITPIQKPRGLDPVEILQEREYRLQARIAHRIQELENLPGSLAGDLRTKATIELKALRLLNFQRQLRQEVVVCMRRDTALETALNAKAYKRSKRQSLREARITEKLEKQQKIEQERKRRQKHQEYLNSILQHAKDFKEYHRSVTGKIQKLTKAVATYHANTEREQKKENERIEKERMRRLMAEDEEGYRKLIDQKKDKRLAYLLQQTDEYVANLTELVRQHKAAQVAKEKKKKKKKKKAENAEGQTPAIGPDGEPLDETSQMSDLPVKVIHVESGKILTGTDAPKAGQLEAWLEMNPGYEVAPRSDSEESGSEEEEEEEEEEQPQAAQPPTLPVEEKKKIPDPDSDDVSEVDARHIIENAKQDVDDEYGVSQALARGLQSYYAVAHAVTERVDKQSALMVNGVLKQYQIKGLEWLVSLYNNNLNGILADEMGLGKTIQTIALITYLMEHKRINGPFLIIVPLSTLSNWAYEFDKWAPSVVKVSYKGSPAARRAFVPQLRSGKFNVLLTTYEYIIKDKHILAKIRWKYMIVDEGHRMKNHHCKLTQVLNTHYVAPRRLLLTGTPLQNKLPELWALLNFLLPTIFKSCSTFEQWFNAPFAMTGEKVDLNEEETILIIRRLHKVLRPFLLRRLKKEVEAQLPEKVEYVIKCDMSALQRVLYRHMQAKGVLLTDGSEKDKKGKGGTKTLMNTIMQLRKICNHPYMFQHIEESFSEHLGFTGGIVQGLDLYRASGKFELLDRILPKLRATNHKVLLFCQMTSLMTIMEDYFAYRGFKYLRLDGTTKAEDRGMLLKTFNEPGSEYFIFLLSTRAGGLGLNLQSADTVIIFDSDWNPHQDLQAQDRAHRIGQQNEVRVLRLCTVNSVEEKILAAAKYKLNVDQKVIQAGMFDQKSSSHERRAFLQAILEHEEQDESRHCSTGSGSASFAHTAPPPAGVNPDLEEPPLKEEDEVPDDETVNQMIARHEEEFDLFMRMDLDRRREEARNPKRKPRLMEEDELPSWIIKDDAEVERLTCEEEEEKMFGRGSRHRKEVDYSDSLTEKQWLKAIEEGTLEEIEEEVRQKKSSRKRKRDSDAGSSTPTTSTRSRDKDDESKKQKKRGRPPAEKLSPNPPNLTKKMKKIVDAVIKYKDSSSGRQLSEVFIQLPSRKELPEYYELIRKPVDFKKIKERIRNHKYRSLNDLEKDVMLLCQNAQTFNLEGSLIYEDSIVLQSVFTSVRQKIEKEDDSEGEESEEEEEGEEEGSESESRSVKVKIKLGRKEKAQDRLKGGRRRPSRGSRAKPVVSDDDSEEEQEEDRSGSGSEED
Chain of BRM (P51531 whole entry): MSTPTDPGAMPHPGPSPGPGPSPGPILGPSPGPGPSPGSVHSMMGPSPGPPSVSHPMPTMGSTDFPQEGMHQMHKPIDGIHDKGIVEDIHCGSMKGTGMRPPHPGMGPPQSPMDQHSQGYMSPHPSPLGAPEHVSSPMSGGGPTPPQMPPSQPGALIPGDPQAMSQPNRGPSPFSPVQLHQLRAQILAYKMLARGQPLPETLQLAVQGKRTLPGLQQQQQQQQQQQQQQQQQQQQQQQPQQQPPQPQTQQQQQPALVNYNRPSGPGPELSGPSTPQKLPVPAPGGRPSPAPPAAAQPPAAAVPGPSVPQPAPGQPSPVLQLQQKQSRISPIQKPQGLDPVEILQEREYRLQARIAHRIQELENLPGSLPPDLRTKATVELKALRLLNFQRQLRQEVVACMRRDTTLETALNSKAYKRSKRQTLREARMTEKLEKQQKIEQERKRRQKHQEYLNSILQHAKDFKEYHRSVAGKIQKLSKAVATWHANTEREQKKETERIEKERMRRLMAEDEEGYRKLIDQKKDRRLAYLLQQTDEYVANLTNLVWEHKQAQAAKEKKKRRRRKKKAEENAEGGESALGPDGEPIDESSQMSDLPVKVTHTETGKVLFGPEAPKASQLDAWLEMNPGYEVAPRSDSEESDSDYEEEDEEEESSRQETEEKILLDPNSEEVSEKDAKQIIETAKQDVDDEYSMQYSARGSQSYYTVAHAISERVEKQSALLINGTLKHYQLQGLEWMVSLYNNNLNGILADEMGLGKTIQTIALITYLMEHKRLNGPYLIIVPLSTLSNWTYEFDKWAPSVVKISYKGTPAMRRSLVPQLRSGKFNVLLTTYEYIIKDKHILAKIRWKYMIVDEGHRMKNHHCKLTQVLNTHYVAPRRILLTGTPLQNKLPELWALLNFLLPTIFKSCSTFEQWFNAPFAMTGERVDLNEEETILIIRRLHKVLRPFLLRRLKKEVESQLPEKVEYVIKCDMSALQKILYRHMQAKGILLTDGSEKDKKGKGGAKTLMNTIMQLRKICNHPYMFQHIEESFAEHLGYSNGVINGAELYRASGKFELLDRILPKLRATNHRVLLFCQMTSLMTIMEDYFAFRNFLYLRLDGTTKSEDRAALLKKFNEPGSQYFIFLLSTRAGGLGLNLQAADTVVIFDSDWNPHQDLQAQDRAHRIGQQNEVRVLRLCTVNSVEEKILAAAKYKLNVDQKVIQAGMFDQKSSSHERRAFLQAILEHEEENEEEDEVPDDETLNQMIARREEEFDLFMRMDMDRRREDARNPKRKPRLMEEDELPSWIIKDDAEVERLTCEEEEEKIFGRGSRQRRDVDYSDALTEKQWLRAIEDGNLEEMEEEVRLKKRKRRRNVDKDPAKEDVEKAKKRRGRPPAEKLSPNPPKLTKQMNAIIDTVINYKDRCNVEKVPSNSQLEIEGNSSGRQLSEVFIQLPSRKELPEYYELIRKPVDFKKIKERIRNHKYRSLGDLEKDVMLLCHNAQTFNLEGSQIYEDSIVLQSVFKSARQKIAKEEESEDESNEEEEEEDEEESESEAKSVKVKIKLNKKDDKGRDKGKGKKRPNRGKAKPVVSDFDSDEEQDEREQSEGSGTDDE

For `CC1CCN(CC#Cc2cc(N3C4CCC3CN(c3cc(-c5ccccc5O)nnc3N)C4)ccn2)CC1` [Compound 138, 2-[6-amino-5-[8-[2-[3-(4-methyl-1-piperidyl)prop-1-ynyl]-4-pyridyl]-3,8-diazabicyclo[3.2.1]octan-3-yl]pyridazin-3-yl]phenol], on BRM, the DC50 lay in the range of 0.01 to 0.1 µM and the “BRM IF Degradation Sinf (%)” value is reported as “E (E indicates −30%-−70%)”. For the same molecule, on BRG1, the DC50 is below 0.01 µM and the Dmax lay within 30 to 70%.

With `N#CC1CCN(CC#Cc2cc(N3C4CCC3CN(c3cc(-c5ccccc5O)nnc3N)C4)ccn2)CC1` [Compound 139, 1-[3-[4-[3-[3-amino-6-(2-hydroxyphenyl)pyridazin-4-yl]-3,8-diazabicyclo[3.2.1]octan-8-yl]-2-pyridyl]prop-2-ynyl]piperidine-4-carbonitrile], at BRM, the DC50 was below 0.01 µM and the “BRM IF Degradation Sinf (%)” value is recorded as “E (E indicates −30%-−70%)”. On BRG1, the DC50 fell in the range of 0.01 to 0.1 µM and the Dmax was 0 to 30%.

For `Nc1nnc(-c2ccccc2O)cc1N1CC2CCC(C1)N2c1ccnc(C#CCN2CCC3(CCOC3)C2)c1` (centres unmarked) [Compound 140, 2-[6-amino-5-[8-[2-[3-(2-oxa-7-azaspiro[4.4]nonan-7-yl)prop-1-ynyl]-4-pyridyl]-3,8-diazabicyclo[3.2.1]octan-3-yl]pyridazin-3-yl]phenol], at BRM, the DC50 is below 0.01 µM and the “BRM IF Degradation Sinf (%)” value was “F (F indicates −71%-−120%)”. For the same molecule, at BRG1, the DC50 is below 0.01 µM and the Dmax lay within 30 to 70%.

Regarding `Nc1nnc(-c2ccccc2O)cc1N1CC2CCC(C1)N2c1ccnc(C#CCN2CC3CCC2C3)c1` (centres unmarked) [Compound 141, 2-[6-amino-5-[8-[2-[3-(2-azabicyclo[2.2.1]heptan-2-yl)prop-1-ynyl]-4-pyridyl]-3,8-diazabicyclo[3.2.1]octan-3-yl]pyridazin-3-yl]phenol], on BRM, the DC50 is below 0.01 µM and the “BRM IF Degradation Sinf (%)” value was “E (E indicates −30%-−70%)”. At BRG1, the DC50 was below 0.01 µM and the Dmax lay within 30 to 70%.

In the case of `Nc1nnc(-c2ccccc2O)cc1N1CC2CCC(C1)N2c1ccnc(C#CCN2CC(O)C2)c1` [Compound 142, 1-[3-[4-[3-[3-amino-6-(2-hydroxyphenyl)pyridazin-4-yl]-3,8-diazabicyclo[3.2.1]octan-8-yl]-2-pyridyl]prop-2-ynyl]azetidin-3-ol], on BRM, the DC50 was 0.01 to 0.1 µM and the “BRM IF Degradation Sinf (%)” value was “E (E indicates −30%-−70%)”. For the same molecule, at BRG1, the DC50 lay in the range of 0.01 to 0.1 µM and the Dmax was in the range of 30 to 70%.

For `Nc1nnc(-c2ccccc2O)cc1N1CC2CCC(C1)N2c1ccnc(C#CCN2CC3CC2CC3(F)F)c1` (centres unmarked) [Compound 143, 2-[6-amino-5-[8-[2-[3-(5,5-difluoro-2-azabicyclo[2.2.1]heptan-2-yl)prop-1-ynyl]-4-pyridyl]-3,8-diazabicyclo[3.2.1]octan-3-yl]pyridazin-3-yl]phenol], on BRM, the DC50 is below 0.01 µM and the “BRM IF Degradation Sinf (%)” value was “E (E indicates −30%-−70%)”. Further, at BRG1, the DC50 is below 0.01 µM and the Dmax lay within 0 to 30%.

For the molecule `Nc1nnc(-c2ccccc2O)cc1N1CC2CCC(C1)N2c1ccnc(C#CCN2C3COCC2CC(F)C3)c1` (centres unmarked) [Compound 144, 2-[6-amino-5-[8-[2-[3-(7-fluoro-3-oxa-9-azabicyclo[3.3.1]nonan-9-yl)prop-1-ynyl]-4-pyridyl]-3,8-diazabicyclo[3.2.1]octan-3-yl]pyridazin-3-yl]phenol], on BRM, the DC50 is above 0.1 µM and the “BRM IF Degradation Sinf (%)” value was “E (E indicates −30%-−70%)”. Moreover, at BRG1, the DC50 lay in the range of 0.01 to 0.1 µM and the Dmax was 0 to 30%.

For `Nc1nnc(-c2ccccc2O)cc1N1CC2CCC(C1)N2c1ccnc(C#CCN2CCC3OCCC3C2)c1` (centres unmarked) [Compound 145, 2-[5-[8-[2-[3-(3,3a,4,6,7,7a-hexahydro-2H-furo[3,2-c]pyridin-5-yl)prop-1-ynyl]-4-pyridyl]-3,8-diazabicyclo[3.2.1]octan-3-yl]-6-amino-pyridazin-3-yl]phenol], on BRM, the DC50 is below 0.01 µM and the “BRM IF Degradation Sinf (%)” value is reported as “E (E indicates −30%-−70%)”. In addition, at BRG1, the DC50 was below 0.01 µM and the Dmax was in the range of 0 to 30%.
